Source: ChEMBL document CHEMBL1909046, “DrugMatrix in vitro pharmacology data”

Columns and labels:
[1] = target: Vascular endothelial growth factor receptor 1 (Homo sapiens, UniProt P17948); type: cell-based; settings: huvec; note: in other assays of this panel Not Active means under 50% inhibition at 10 µM
Cannabinoid receptor 1 = Cannabinoid receptor 1 (Homo sapiens, UniProt P21554); type: cell membranes, Chem-1, Membrane; settings: chem-1; note: in other assays of this panel Not Active means under 50% inhibition at 10 µM
Sequence of Cannabinoid receptor 1 (P21554 whole entry): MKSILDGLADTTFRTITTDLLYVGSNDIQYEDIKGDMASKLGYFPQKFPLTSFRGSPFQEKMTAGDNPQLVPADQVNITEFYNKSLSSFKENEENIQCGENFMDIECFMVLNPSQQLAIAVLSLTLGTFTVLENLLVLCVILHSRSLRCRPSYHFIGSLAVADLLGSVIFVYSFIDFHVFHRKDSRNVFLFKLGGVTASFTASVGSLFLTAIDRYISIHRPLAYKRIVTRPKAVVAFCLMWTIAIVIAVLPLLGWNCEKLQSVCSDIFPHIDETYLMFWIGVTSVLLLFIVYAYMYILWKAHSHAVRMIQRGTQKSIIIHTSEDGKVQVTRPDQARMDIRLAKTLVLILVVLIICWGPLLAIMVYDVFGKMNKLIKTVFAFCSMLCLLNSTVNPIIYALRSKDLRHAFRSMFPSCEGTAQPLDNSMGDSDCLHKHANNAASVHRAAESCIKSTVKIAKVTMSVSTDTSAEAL

[2] = target: T1, Cysteinyl leukotriene receptor 1 (Homo sapiens, UniProt Q9Y271); type: cell membranes, CHO-K1, Membrane; settings: cho-k1; note: in other assays of this panel Not Active means under 50% inhibition at 10 µM
T1 sequence (Q9Y271 whole entry): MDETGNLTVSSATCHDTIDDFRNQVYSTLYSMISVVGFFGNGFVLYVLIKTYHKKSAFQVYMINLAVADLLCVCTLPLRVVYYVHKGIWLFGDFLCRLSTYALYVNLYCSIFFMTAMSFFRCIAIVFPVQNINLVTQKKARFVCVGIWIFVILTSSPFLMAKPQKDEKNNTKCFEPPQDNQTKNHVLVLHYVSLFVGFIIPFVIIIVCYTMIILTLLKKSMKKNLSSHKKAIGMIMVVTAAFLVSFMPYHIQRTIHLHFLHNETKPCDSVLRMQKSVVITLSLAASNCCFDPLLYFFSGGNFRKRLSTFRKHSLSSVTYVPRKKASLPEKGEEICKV

Mu-type opioid receptor = Mu-type opioid receptor (Homo sapiens, UniProt P35372); assay: DRUGMATRIX: Opiate mu (OP3, MOP) radioligand binding (ligand: [3H] Diprenorphine); type: cell membranes, CHO-K1, Membrane; settings: cho-k1; Not Active = under 50% inhibition at 10 µM
Sequence of Mu-type opioid receptor (P35372 whole entry): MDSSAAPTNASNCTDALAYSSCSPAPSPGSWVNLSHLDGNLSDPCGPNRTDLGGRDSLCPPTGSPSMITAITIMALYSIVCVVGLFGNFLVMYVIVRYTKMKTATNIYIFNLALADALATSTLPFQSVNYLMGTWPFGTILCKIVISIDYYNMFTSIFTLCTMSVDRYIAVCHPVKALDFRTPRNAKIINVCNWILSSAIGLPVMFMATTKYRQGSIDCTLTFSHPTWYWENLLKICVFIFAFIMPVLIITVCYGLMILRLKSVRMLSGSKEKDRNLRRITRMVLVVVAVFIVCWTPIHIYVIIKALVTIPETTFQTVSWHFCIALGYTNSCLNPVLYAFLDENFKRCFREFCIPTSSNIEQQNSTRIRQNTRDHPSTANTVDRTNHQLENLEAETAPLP

[3] = DRUGMATRIX: Phosphodiesterase PDE3 enzyme inhibition (substrate: [3H]cAMP + cAMP); type: tissue-based, Homo sapiens; settings: platelet; Not Active = under 50% inhibition at 10 µM
Progesterone receptor = target: T2, Progesterone receptor (Bos taurus, UniProt Q690N0); assay: DRUGMATRIX: Progesterone radioligand binding (ligand: [3H] R-5020); type: tissue-based, Uterus; settings: Not Active = under 50% inhibition at 10 µM
T2 sequence (Q690N0 whole entry): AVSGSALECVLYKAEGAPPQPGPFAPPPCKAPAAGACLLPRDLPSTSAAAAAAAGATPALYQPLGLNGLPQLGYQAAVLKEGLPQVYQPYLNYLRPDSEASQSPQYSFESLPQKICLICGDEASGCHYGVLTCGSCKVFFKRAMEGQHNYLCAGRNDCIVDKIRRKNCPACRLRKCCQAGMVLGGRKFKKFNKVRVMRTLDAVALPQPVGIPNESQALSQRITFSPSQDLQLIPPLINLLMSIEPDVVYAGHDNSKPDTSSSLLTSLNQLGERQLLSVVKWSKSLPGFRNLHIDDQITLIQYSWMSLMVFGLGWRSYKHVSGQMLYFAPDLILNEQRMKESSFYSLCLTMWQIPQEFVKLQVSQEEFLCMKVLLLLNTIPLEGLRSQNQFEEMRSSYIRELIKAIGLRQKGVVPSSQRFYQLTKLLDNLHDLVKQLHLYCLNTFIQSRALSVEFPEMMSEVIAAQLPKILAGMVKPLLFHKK

Cytochrome P450 2A6 = target: T3, Cytochrome P450 2A6 (Homo sapiens, UniProt P11509); settings: bti-tn-5b1-4; note: in other assays of this panel Not Active means under 50% inhibition at 10 µM
T3 sequence (P11509 whole entry): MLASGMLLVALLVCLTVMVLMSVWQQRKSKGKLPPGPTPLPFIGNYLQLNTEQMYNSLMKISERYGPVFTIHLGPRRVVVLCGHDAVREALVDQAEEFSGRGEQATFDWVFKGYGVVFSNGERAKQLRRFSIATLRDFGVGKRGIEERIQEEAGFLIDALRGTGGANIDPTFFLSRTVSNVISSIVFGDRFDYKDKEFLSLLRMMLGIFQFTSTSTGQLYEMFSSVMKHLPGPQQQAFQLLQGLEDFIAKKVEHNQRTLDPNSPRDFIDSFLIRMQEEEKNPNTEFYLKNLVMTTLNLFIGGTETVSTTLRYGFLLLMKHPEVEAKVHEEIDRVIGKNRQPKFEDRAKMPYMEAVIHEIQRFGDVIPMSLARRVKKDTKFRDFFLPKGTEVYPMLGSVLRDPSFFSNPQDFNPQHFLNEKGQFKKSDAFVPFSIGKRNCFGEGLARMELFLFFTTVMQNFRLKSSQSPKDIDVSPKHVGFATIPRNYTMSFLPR

Cytochrome P450 2D6 = Cytochrome P450 2D6 (Homo sapiens, UniProt P10635); settings: bti-tn-5b1-4; note: in other assays of this panel Not Active means under 50% inhibition at 10 µM
Sequence of Cytochrome P450 2D6 (P10635 whole entry): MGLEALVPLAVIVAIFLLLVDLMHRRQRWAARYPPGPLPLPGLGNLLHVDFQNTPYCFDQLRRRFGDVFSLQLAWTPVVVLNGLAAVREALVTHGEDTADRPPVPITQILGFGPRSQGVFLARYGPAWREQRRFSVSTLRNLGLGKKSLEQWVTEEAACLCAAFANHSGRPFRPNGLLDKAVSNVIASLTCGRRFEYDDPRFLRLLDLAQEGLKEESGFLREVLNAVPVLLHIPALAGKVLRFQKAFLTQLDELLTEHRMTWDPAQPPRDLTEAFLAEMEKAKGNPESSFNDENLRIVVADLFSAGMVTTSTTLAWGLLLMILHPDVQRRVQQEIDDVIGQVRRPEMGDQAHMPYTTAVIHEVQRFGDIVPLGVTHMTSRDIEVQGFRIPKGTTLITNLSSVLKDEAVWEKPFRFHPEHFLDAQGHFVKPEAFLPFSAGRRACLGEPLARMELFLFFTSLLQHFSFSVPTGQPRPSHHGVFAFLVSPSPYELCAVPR

Estrogen receptor beta = Estrogen receptor beta (Homo sapiens, UniProt Q92731); settings: sf9; note: in other assays of this panel Not Active means under 50% inhibition at 10 µM
Sequence of Estrogen receptor beta (Q92731 whole entry): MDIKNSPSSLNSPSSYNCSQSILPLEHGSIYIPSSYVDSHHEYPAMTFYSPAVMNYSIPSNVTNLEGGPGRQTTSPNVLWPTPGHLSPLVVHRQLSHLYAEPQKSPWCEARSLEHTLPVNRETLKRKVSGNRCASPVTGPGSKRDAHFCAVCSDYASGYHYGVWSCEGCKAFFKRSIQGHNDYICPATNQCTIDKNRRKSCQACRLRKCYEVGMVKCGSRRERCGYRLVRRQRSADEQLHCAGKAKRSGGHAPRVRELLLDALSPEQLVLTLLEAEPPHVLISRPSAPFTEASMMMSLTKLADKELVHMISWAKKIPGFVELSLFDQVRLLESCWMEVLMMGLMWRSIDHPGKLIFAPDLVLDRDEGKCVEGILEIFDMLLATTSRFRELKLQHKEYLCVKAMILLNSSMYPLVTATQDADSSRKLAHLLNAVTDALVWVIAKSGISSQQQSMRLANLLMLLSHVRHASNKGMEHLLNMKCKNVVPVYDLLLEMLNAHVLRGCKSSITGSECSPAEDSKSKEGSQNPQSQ

[4] = target: Voltage-gated inwardly rectifying potassium channel KCNH2 (Homo sapiens, UniProt Q12809); settings: hek293; note: in other assays of this panel Not Active means under 50% inhibition at 10 µM
Sequence of Voltage-gated inwardly rectifying potassium channel KCNH2 (Q12809 whole entry): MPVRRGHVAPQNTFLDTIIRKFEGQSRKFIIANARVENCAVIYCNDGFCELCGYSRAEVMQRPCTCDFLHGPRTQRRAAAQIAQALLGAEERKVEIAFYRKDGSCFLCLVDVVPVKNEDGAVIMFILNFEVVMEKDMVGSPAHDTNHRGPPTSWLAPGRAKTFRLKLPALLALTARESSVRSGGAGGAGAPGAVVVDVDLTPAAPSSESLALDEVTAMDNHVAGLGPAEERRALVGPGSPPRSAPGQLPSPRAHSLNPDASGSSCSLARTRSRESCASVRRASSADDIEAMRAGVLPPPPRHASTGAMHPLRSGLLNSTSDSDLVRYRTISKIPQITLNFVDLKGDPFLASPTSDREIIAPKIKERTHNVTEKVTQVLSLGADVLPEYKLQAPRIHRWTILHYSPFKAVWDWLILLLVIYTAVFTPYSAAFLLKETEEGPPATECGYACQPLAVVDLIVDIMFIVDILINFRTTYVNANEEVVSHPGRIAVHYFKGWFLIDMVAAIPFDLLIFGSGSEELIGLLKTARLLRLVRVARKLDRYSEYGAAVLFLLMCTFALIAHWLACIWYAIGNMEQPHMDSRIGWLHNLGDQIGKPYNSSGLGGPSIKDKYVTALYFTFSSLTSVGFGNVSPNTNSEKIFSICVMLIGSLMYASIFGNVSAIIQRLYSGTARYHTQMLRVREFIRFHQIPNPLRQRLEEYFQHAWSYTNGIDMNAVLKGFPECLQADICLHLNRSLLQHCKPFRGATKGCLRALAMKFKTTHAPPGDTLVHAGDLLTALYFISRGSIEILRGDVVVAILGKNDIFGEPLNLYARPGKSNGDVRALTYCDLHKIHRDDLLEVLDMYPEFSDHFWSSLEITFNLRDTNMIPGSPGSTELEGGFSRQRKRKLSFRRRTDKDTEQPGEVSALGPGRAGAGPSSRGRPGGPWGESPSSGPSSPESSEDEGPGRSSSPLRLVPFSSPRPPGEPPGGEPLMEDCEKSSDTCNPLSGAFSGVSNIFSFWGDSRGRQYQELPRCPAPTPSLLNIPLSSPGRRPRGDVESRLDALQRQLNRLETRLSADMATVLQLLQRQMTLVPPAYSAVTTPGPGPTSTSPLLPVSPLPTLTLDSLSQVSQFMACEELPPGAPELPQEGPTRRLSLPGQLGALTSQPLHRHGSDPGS

Sequence of Vascular endothelial growth factor receptor 1 (P17948 whole entry): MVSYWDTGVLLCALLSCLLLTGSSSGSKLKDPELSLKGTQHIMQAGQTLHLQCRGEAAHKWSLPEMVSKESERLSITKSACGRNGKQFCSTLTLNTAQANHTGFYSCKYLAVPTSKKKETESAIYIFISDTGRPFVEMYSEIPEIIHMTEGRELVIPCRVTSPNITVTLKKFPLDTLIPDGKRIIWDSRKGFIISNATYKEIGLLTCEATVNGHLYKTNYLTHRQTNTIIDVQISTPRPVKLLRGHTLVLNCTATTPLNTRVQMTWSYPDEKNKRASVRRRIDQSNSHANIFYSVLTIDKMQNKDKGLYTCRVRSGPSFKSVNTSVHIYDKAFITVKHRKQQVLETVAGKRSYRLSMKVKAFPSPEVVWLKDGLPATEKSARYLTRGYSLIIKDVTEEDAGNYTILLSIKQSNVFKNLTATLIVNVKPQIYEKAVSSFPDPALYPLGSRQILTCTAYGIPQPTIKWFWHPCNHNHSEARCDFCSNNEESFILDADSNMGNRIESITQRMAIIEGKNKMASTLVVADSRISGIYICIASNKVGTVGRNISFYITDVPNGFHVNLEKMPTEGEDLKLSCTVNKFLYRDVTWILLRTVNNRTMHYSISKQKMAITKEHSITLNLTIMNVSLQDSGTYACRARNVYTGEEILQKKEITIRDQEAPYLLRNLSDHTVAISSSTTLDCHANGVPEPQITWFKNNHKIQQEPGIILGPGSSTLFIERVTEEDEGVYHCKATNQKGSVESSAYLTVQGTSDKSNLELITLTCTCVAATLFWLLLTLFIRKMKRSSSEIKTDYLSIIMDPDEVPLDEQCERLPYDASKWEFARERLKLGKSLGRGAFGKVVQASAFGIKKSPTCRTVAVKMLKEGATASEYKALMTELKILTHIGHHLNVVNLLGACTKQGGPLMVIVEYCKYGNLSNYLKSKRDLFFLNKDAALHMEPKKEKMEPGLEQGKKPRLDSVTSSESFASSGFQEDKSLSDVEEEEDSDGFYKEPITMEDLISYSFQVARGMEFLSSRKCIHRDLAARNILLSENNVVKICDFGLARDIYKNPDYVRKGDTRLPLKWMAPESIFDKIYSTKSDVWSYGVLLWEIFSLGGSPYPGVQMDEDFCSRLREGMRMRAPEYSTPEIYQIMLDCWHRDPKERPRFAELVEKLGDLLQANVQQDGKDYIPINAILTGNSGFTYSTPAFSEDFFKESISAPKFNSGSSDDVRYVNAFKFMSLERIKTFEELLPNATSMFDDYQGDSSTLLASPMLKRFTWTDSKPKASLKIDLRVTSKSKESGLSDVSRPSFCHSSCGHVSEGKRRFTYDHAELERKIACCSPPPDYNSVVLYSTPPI

Cc1cccc(Nc2ccncc2S(=O)(=O)NC(=O)NC(C)C)c1 [TORSEMIDE]
Not Active: IC50 [1] | IC50 (Cannabinoid receptor 1) | IC50 [2] | IC50 (Mu-type opioid receptor) | IC50 [3] | Ki [3] | IC50 (Progesterone receptor) | IC50 (Cytochrome P450 2A6) | Ki (Cytochrome P450 2A6) | IC50 (Cytochrome P450 2D6) | Ki (Cytochrome P450 2D6) | IC50 (Estrogen receptor beta) | IC50 [4] | Ki [4]

CC(C)C[C@H](NC(=O)[C@@H](O)[C@H](N)Cc1ccccc1)C(=O)O [UBENIMEX]
Not Active: IC50 [1] | IC50 (Cannabinoid receptor 1) | IC50 [2] | IC50 (Mu-type opioid receptor) | IC50 [3] | Ki [3] | IC50 (Progesterone receptor) | IC50 (Cytochrome P450 2A6) | Ki (Cytochrome P450 2A6) | IC50 (Cytochrome P450 2D6) | Ki (Cytochrome P450 2D6) | IC50 (Estrogen receptor beta) | IC50 [4] | Ki [4]

Cc1onc(-c2ccccc2)c1-c1ccc(S(N)(=O)=O)cc1 [VALDECOXIB]
Not Active: IC50 [1] | IC50 (Cannabinoid receptor 1) | IC50 [2] | IC50 (Mu-type opioid receptor) | IC50 [3] | Ki [3] | IC50 (Progesterone receptor) | IC50 (Cytochrome P450 2A6) | Ki (Cytochrome P450 2A6) | IC50 (Cytochrome P450 2D6) | Ki (Cytochrome P450 2D6) | IC50 (Estrogen receptor beta) | IC50 [4] | Ki [4]

CC[C@]1(O)C[C@@H]2CN(CCc3c([nH]c4ccccc34)[C@@](C(=O)OC)(c3cc4c(cc3OC)N(C)[C@H]3[C@@](O)(C(=O)OC)[C@H](OC(C)=O)[C@]5(CC)C=CCN6CC[C@]43[C@@H]65)C2)C1 [VINBLASTINE]
Not Active: IC50 [1] | IC50 (Cannabinoid receptor 1) | IC50 [2] | IC50 (Mu-type opioid receptor) | IC50 [3] | Ki [3] | IC50 (Progesterone receptor) | IC50 (Cytochrome P450 2A6) | Ki (Cytochrome P450 2A6) | IC50 (Cytochrome P450 2D6) | Ki (Cytochrome P450 2D6) | IC50 (Estrogen receptor beta) | IC50 [4] | Ki [4]
